Values after ≈ are worked out from the molar mass of the structure shown. Where two headings read alike, the source gives them in different places.
Key:
Mtb H37Rv = assay: TB MIC - SRI, resazurin-based microplate assay; format: cell-based, Mycobacterium tuberculosis; conditions: for MIC: Mycobacterium tuberculosis, H37RV
[1] = test system: Staphylococcus aureus ATCC 29213; assay: Spectrum of antimicrobial activity; format: cell-based
[2] = test system: Escherichia coli pKM101 SRI Collection; assay: Spectrum of antimicrobial activity; format: cell-based
[3] = test system: Enterococcus fecalis ATCC 51575; assay: Spectrum of antimicrobial activity; format: cell-based

[O-][n+]1nc(N2CCCC2)[n+]([O-])c2cc3c(cc21)CCC3 [Compound 20q, 3-(pyrrolidin-1-yl)-7,8-dihydro-6H-indeno[5,6-e][1,2,4]triazine 1,4-dioxide]
MIC (Mtb H37Rv; read-out: MIC, H37Rv, Table 5): 0.62 mg/L (≈ 2.28 µM) | MIC (Mtb H37Rv; read-out: TB MIC - SRI, Tables 1-4 and text): 0.31 mg/L (≈ 1.14 µM) | Antimicrobial activity, Mtb H37Rv (Mtb H37Rv; source CSU, SI Table 1): 0.31 µg/mL | Antimicrobial activity, Staphylococcus aureus [1]: >32 µg/mL | Antimicrobial activity, Escherichia coli pKM101 [2]: >32 μg/mL | Antimicrobial activity, Enterococcus fecalis [3]: >32 µg/mL
